Source: patent publication US11793885B2, “Substituted benzo[5,6][1,4]diazepino[1,2-a]indoles for the treatment of proliferative disorders” (priority 2017, dated 2023)
Where two headings read alike, the source gives them in different places.

Key:
KB (cervical carcinoma) = experiment: in vitro cytotoxicity assay, KB cells; assay type: cell-based, human; conditions: free cytotoxic compound, 5 days
Excerpt: (§1) Following cell lines were used for the study: KB (cervical carcinoma, ATCC), NCI-H2110 (Non Small Cell Lung Carcinoma, ATCC), Namalwa (Burkitt's lymphoma, ATCC), Ishikawa (endometrial adenocarcinoma, ECACC), EOL-1 (Acute Myeloid Leukemia, ECACC), JEG-3 (choriocarcinoma, ATCC), JHOS-4 (ovarian adenocarcinoma, Riken Bioresource Center), OV-90 (ovarian adenocarcinoma, ATCC), SKOV-6 (ovarian adenocarcinoma, Memorial Sloan Kettering Cancer Center), Igrov-1 (ovarian adenocarcinoma, National Cancer Institute), KB-GRC1-MDR (cervical carcinoma/Pgp positive, gift from Dr. Roninson at the Ordway Research Institute) and T47D (breast epithelial cancer, ATCC). The cells were maintained and plated for the cytotox experiments in media recommended by the manufacturers. Cells were plated in the 96-well flat bottom plates at a seeding density of 800 cells per well (Ishikawa, JEG-3 or SK-OV-6), 1,000 cells per well (KB, Namalwa, EOL-1, OV-90 and Igrov-1) or 2,000 cell per well (NCI H2110, JHOS-4 and T47D). Conjugates or free drug compounds were diluted in RPMI-1640 (Life Technologies) supplemented with heat-inactivated 100 FBS (Life Technologies) and 0.1 mg/ml gentamycin (Life Technologies), and added to the plated cells. To determine specificity of cytotoxic activity of the conjugates an excess of unconjugated antibody was added to a separate set of diluted conjugates (+block samples, IC50 table). The plates were incubated at 37° C., 500 CO2 for either 4 days (JHOS-4 and T47D cells) or 5 days (KB, NCI H2110, Ishikawa, EOL-1, JEG-3, OV-90, SK-OV-6, NC-H441 and Igrov-1 cells). Alamar blue assay (Invitrogen) was used to determine viability of JHOS-4 and T47D cells, and WST-8 assay (Donjindo Molecular Technologies, Inc.) was applied for viability of KB, NCI H2110, Namalwa, Ishikawa, EOL-1, JEG-4, OV-90, SK-OV-6, NCI-H4441 and Igrov-1 cells. The assays were performed in accordance with the manufacturer's protocols. Killing curves and IC50 were generated using a sigmoidal dose-response nonlinear regression curve fit (GraphPad Software Inc.).

[1] = tested on: NCI-H2110 (Non Small Cell Lung Carcinoma); experiment: in vitro cytotoxicity assay, NCI-H2110 cells; assay type: cell-based; conditions: free cytotoxic compound, 5 days
Excerpt: as §1

[2] = tested on: Namalwa (Burkitt's lymphoma); experiment: in vitro cytotoxicity assay, Namalwa cells; assay type: cell-based, human; conditions: free cytotoxic compound
Excerpt: as §1

[3] = tested on: EOL-1 (Acute Myeloid Leukemia); experiment: in vitro cytotoxicity assay, EOL-1 cells; assay type: cell-based; conditions: Homo sapiens, EOL1, 120 h; free cytotoxic compound; 5 days
Excerpt: as §1

[4] = tested on: Ishikawa (endometrial adenocarcinoma); experiment: in vitro cytotoxicity assay, Ishikawa cells; assay type: cell-based; conditions: free cytotoxic compound, 5 days
Excerpt: as §1

[5] = tested on: KB-GRC1-MDR (cervical carcinoma/Pgp positive); experiment: cells; conditions: read-out: IC50 KB-MDR
Excerpt: Following cell lines were used for the study: KB (cervical carcinoma, ATCC), NCI-H2110 (Non Small Cell Lung Carcinoma, ATCC), Namalwa (Burkitt's lymphoma, ATCC), Ishikawa (endometrial adenocarcinoma, ECACC), EOL-1 (Acute Myeloid Leukemia, ECACC), JEG-3 (choriocarcinoma, ATCC), JHOS-4 (ovarian adenocarcinoma, Riken Bioresource Center), OV-90 (ovarian adenocarcinoma, ATCC), SKOV-6 (ovarian adenocarcinoma, Memorial Sloan Kettering Cancer Center), Igrov-1 (ovarian adenocarcinoma, National Cancer Institute), KB-GRC1-MDR (cervical carcinoma/Pgp positive, gift from Dr. Roninson at the Ordway Research Institute) and T47D (breast epithelial cancer, ATCC). The cells were maintained and plated for the cytotox experiments in media recommended by the manufacturers. Cells were plated in the 96-well flat bottom plates at a seeding density of 800 cells per well (Ishikawa, JEG-3 or SK-OV-6), 1,000 cells per well (KB, Namalwa, EOL-1, OV-90 and Igrov-1) or 2,000 cell per well (NCI H2110, JHOS-4 and T47D). […] To determine specificity of cytotoxic activity of the conjugates an excess of unconjugated antibody was added to a separate set of diluted conjugates (+block samples, IC50 table). The plates were incubated at 37° C., […] for either 4 days (JHOS-4 and T47D cells) or 5 days (KB, NCI H2110, Ishikawa, EOL-1, JEG-3, OV-90, SK-OV-6, NC-H441 and Igrov-1 cells). Alamar blue assay (Invitrogen) was used to determine viability of JHOS-4 and T47D cells, and WST-8 assay (Donjindo Molecular Technologies, Inc.) was applied for viability of KB, NCI H2110, Namalwa, Ishikawa, EOL-1, […], OV-90, SK-OV-6, […] and Igrov-1 cells. The assays were performed in accordance with the manufacturer's protocols. Killing curves and IC50 were generated using a sigmoidal dose-response nonlinear regression curve fit (GraphPad Software Inc.).

[6] = tested on: T47D (breast epithelial cancer); experiment: in vitro cytotoxicity assay, T47D cells; assay type: cell-based; conditions: Homo sapiens, 96 h, read-out: IC50 T47D
Experimental: The cells were maintained and plated for the cytotox experiments in media recommended by the manufacturers. Cells were plated in the 96-well flat bottom plates at a seeding density of 800 cells per well (Ishikawa, JEG-3 or SK-OV-6), 1,000 cells per well (KB, Namalwa, EOL-1, OV-90 and Igrov-1) or 2,000 cell per well (NCI H2110, JHOS-4 and T47D). Conjugates or free drug compounds were diluted in RPMI-1640 (Life Technologies) supplemented with heat-inactivated 100 FBS (Life Technologies) and 0.1 mg/ml gentamycin (Life Technologies), and added to the plated cells. To determine specificity of cytotoxic activity of the conjugates an excess of unconjugated antibody was added to a separate set of diluted conjugates (+block samples, IC50 table). The plates were incubated at 37° C., 500 CO2 for either 4 days (JHOS-4 and T47D cells) or 5 days (KB, NCI H2110, Ishikawa, EOL-1, JEG-3, OV-90, SK-OV-6, NC-H441 and Igrov-1 cells). Alamar blue assay (Invitrogen) was used to determine viability of JHOS-4 and T47D cells, and WST-8 assay (Donjindo Molecular Technologies, Inc.) was applied for viability of KB, NCI H2110, Namalwa, Ishikawa, EOL-1, JEG-4, OV-90, SK-OV-6, NCI-H4441 and Igrov-1 cells. The assays were performed in accordance with the manufacturer's protocols. Killing curves and IC50 were generated using a sigmoidal dose-response nonlinear regression curve fit (GraphPad Software Inc.).

[7] = Phase I clinical evaluation; cited from earlier work

Row | SMILES | IC50 (KB (cervical carcinoma); Homo sapiens, KB, 120 h) | IC50 ([1]; NCI-H2110, 120 h) | IC50 ([2]; Homo sapiens) | IC50 [3] | IC50 ([4]; Homo sapiens, Ishikawa, 120 h) | also measured
1 | COc1cc2c(cc1OCCCC(=O)Nc1cc(C(=O)Nc3cc(C(=O)NCC(C)(C)SSC)n(C)c3)n(C)c1)N=C[C@@H]1Cc3ccccc3N1C2=O [Compound 132] | 0.4 nM | 2 nM | 0.09 nM | 0.04 nM |  | 
2 | COC(=O)CCNC(=O)c1cc2cc(NC(=O)c3nc(NC(=O)CCCOc4cc5c(cc4OC)C(=O)N4c6ccccc6C[C@H]4C=N5)cn3C)ccc2s1 [Compound 142] |  |  | 0.01 nM | 0.006 nM |  | 
3 | COC(=O)CCNC(=O)c1nc(NC(=O)c2cc3cc(NC(=O)CCCOc4cc5c(cc4OC)C(=O)N4c6ccccc6C[C@H]4C=N5)ccc3o2)cn1C [Compound 180] | 1 nM | 2 nM | 0.3 nM |  |  | 
4 | COc1cc2c(cc1OCCCC(=O)Nc1cc(C(=O)Nc3ccc(-c4cc(C(=O)NCC(C)(C)SSC)n(C)c4)cc3)n(C)c1)N=C[C@@H]1Cc3ccccc3N1C2=O [Compound 85] | 0.01 nM | 0.1 nM | 0.03 nM | 0.008 nM | 0.1 nM | IC50 [5]: > 5 nM
5 | COC(=O)CCNC(=O)c1cc2cc(NC(=O)c3cc(NC(=O)CCCOc4cc5c(cc4OC)C(=O)N4c6ccccc6C[C@H]4C=N5)cn3C)ccc2s1 [Compound 9] | 0.04 nM | 0.2 nM | 0.03 nM | 0.01 nM | 0.07 nM | 
6 | COC(=O)c1cc2cc(NC(=O)c3cc(NC(=O)CCCOc4cc5c(cc4OC)C(=O)N4c6ccccc6C[C@H]4C=N5)cn3C)ccc2s1 [Compound 7] |  |  | 0.02 nM |  |  | 
7 | COc1cc2c(cc1OCCCC(=O)Nc1cn(C)c(C(=O)Nc3ccc(-c4csc(C(=O)NCC(C)(C)SSC)n4)cc3)n1)N=C[C@@H]1Cc3ccccc3N1C2=O [Compound 113] | 0.2 nM | 0.4 nM | 0.07 nM |  | 0.2 nM | IC50 [5]: 3 nM
8 | COc1cc2c(cc1OCc1cccc(CC(=O)Nc3cc(C(=O)Nc4ccc(-c5cc(C(=O)NCC(C)(C)S(C)=S)n(C)c5)cc4)n(C)c3)c1)N=C[C@@H]1Cc3ccccc3N1C2=O (stereo partly shown) [Compound 55] |  |  |  |  |  | IC50 (KB (cervical carcinoma)): 9 nM; IC50 [1]: 2 nM; IC50 [2]: 4 nM
9 | COC(=O)CCNC(=O)c1cc2cc(NC(=O)c3cc(NC(=O)CCCOc4cc5c(cc4OC)C(=O)N4c6ccccc6C[C@H]4C=N5)cn3C)ccc2o1 [Compound 185] | 0.2 nM | 0.5 nM | 0.2 nM |  |  | 
10 | COc1cc2c(cc1OCCCC(=O)Nc1nc(C)c(C(=O)Nc3ccc4sc(C(=O)NCC(C)(C)S(C)=S)cc4c3)s1)N=C[C@@H]1Cc3ccccc3N1C2=O (stereo partly shown) [Compound 81] |  |  |  |  |  | IC50 (KB (cervical carcinoma)): > 5 nM; IC50 [1]: > 5 nM; IC50 [2]: 3 nM; IC50 [4]: > 5 nM; IC50 ([5]; free cytotoxic compound): > 5 nM
11 | COC(=O)c1cc2cc(NC(=O)c3cc(Nc4cccc(COc5cc6c(cc5OC)C(=O)N5c7ccccc7C[C@H]5C=N6)c4)cn3C)ccc2s1 [Compound 63] | 1 nM | 3 nM | 0.3 nM |  | 0.6 nM | IC50 [5]: > 5 nM
12 | COc1cc2c(cc1OCCCC(=O)Nc1cn(C)c(C(=O)NCc3cccc(C(=O)NCC(C)(C)S(C)=S)c3)n1)N=C[C@@H]1Cc3ccccc3N1C2=O (stereo partly shown) [Compound 121] |  |  |  |  |  | IC50 (KB (cervical carcinoma)): 2 nM; IC50 [1]: 2 nM; IC50 [2]: 0.6 nM; IC50 [4]: 2 nM; IC50 ([5]; free cytotoxic compound): > 5 nM
13 | COc1cc2c(cc1OCCCC(=O)Nc1cn(C)c(C(=O)Nc3ccc4sc(C(=O)NCC(C)(C)SSC)cc4c3)n1)N=C[C@@H]1Cc3ccccc3N1C2=O [Compound 155] |  |  | 0.03 nM | 0.009 nM |  | 
14 | COC(=O)CCNC(=O)c1cc2cc(NC(=O)c3nc(NC(=O)CCCOc4cc5c(cc4OC)C(=O)N4c6ccccc6C[C@H]4C=N5)cn3C)ccc2o1 [Compound 188] | 0.08 nM | 0.5 nM | 0.06 nM | 0.02 nM |  | 
15 | COc1cc2c(cc1OCCCC(=O)Nc1cn(C)c(C(=O)Nc3ccc4sccc4c3)n1)N=C[C@@H]1Cc3ccccc3N1C2=O [Compound 137] | 0.05 nM | 0.1 nM | 0.02 nM | 0.01 nM |  | 
16 | COc1cc2c(cc1OCCCC(=O)Nc1cccc(C(=O)Nc3cc(C(=O)NCC(C)(C)SSC)n(C)c3)n1)N=C[C@@H]1Cc3ccccc3CN1C2=O [Compound 205] | 0.4 nM | 0.8 nM | 0.1 nM |  | 0.3 nM | IC50 [5]: 4 nM
17 | COc1cc2c(cc1OCCCC(=O)Nc1ccc(C(=O)Nc3cc(C(=O)NCC(C)(C)S(C)=S)n(C)c3)nc1)N=C[C@@H]1Cc3ccccc3N1C2=O (stereo partly shown) [Compound 117] |  |  |  |  |  | IC50 (KB (cervical carcinoma)): 0.6 nM; IC50 [1]: 2 nM; IC50 [2]: 0.3 nM; IC50 [4]: 1 nM; IC50 ([5]; free cytotoxic compound): > 5 nM
18 | COC(=O)c1cc2cc(NC(=O)c3cc(NC(=O)NCCOc4cc5c(cc4OC)C(=O)N4c6ccccc6C[C@H]4C=N5)cn3C)ccc2s1 [Compound 214] | > 5 nM | > 5 nM |  |  |  | 
19 | COc1cc2c(cc1OCCCC(=O)Nc1cn(C)c(C(=O)Nc3ccc(N)cc3)n1)N=C[C@@H]1Cc3ccccc3N1C2=O [Compound 149] | 0.2 nM | 0.4 nM | 0.06 nM |  | 0.1 nM | 
20 | COC(=O)c1cc2cc(NC(=O)c3cc(NCCCCOc4cc5c(cc4OC)C(=O)N4c6ccccc6C[C@H]4C=N5)cn3C)ccc2s1 [Compound 216] | 0.5 nM | 9 nM |  |  |  | IC50 [6]: 2 nM
21 | C=C1C[C@H]2C=Nc3cc(OCCCOc4cc5c(cc4OC)C(=O)N4CC(=C)C[C@H]4C=N5)c(OC)cc3C(=O)N2C1 [SJG-136] |  |  |  |  |  | maximum tolerated dose [7]: 45 μg/m^2
22 | COc1cc2c(cc1OCCCCNC(=O)c1cc(NC(=O)c3cc(NC(=O)CCC(C)(C)SSC)cn3C)cn1C)N=C[C@@H]1Cc3ccccc3N1C2=O [Compound 192] | 0.9 nM | 2 nM | 0.4 nM |  |  | 
23 | COc1cc2c(cc1OCCCC(=O)Nc1cn(C)c(C(=O)Nc3ccc(-c4cc(C(=O)NCC(C)(C)SSC)n(C)c4)cn3)n1)N=C[C@@H]1Cc3ccccc3N1C2=O [Compound 103] | 0.07 nM | 0.2 nM | 0.02 nM |  | 0.05 nM | IC50 [5]: 0.4 nM
24 | COc1cc2c(cc1OCCCC(=O)Nc1cn(C)c(C(=O)Nc3ccc(-c4cc(C(=O)NCC(C)(C)SSC)n(C)c4)cc3)n1)N=C[C@@H]1Cc3ccccc3N1C2=O [Compound 125] | 0.04 nM | 0.06 nM | 0.01 nM | 0.004 nM | 0.05 nM | IC50 [5]: 0.9 nM
25 | COc1cc2c(cc1OCCCC(=O)Nc1ccc(-c3cc(C(=O)NCC(C)(C)S)n(C)c3)cc1)NC(S(=O)(=O)O)[C@@H]1Cc3ccccc3N1C2=O (stereo partly shown) [Compound 30] |  |  | 0.7 nM | 0.1 nM |  | 
26 | COc1cc2c(cc1OCCCC(=O)Nc1cn(C)c(C(=O)Nc3ccc(-c4cc(C(=O)NCC(C)(C)SSC)n(C)c4)cc3)n1)N=C[C@@H]1Cc3ccccc3CN1C2=O [Compound 206] | 0.006 nM | 0.01 nM | 0.001 nM |  | 0.004 nM | IC50 [5]: 0.1 nM
27 | COc1cc2c(cc1OCCCC(=O)Nc1cn(C)c(C(=O)Nc3ccc4nc(C(=O)NCC(C)(C)S(C)=S)n(C)c4c3)n1)N=C[C@@H]1Cc3ccccc3N1C2=O (stereo partly shown) [Compound 99] |  |  |  |  |  | IC50 (KB (cervical carcinoma)): 0.5 nM; IC50 [1]: 1 nM; IC50 [2]: 0.1 nM; IC50 [4]: 0.7 nM
28 | COC(=O)CCNC(=O)c1cc2cc(NC(=O)c3cc(NC(=O)CCCOc4cc5c(cc4OC)C(=O)N4c6ccccc6C[C@H]4C=N5)cn3CCCNC(=O)OC(C)(C)C)ccc2o1 [Compound 199] | 1 nM | 5 nM | > 0.5 nM |  |  | IC50 [1]: 3 nM
